Reference: paper PMC11852925 (2025)
One block for each compound: values may come before it.

Key:
Test in all cases: fluorescence titration, multiwavelength global analysis
[1] = system: hTel22 (DNA, G4) AGGGTTAGGGTTAGGGTTAGGG; settings: 100 mM KCl, 10 mM K-phosphate pH 7.0, 295 K, 1:1 complex
[2] = system: ds26 (DNA, duplex) CAATCGGATCGAATTCGATCCGATTG; settings: 100 mM KCl, 10 mM K-phosphate pH 7.0, 295 K
[3] = system: c-myc22 (DNA, G4) GAGGGTGGGGAGGGTGGGGAAG; settings: 100 mM KCl, 10 mM K-phosphate pH 7.0, 295 K, 1:1 complex
[4] = system: hTel45 (DNA, G4) GGGTTAGGGTTAGGGTTAGGGTTAGGGTTAGGGTTAGGGTTAGGG; settings: 100 mM KCl, 10 mM K-phosphate pH 7.0, 295 K

- logK ([1]; ligand dimerization (logK 6.6) included, cumulative 1:2 logK 14.04): 7.64 ± 0.16
- logK ([2]; per site of 1:2 complex, cumulative 1:2 15.25, 1:4 29.15): 7.6
- logK ([3]; dimerization (logK 6.6) included, cumulative 1:2 14.74): 6.89 ± 0.05
- logK ([4]; cumulative constant of 1:2 (DNA:ligand) complex, 1:4 28.6, dimerization included): 14.41 ± 0.05
SMILES: CCCNC(=O)c1ccc2[nH]c3c([nH]c2c1)c1c(=O)n(CCCN(C)C)c(=O)c2ccc4c(=O)n(CCCN(C)C)c(=O)c3c4c21

- logK ([1]; cumulative 1:2 15.71, 2:1 (DNA:dyad) 14.14): 8.93 ± 0.07
- logK ([2]; 1:1 complex, cumulative 1:2 12.95, 1:3 18.35): 6.50 ± 0.03
- logK ([3]; cumulative 1:2 13.78): 6.16 ± 0.02
- logK ([4]; 1:1 complex, cumulative 1:2 12.94, 1:4 25.52, 2:1 13.24): 7.91 ± 0.07
SMILES: CN(C)CCCN1C(=O)c2ccc3c4c(c(NCCCCCCCNC(=O)c5ccc6[nH]c7c([nH]c6c5)c5c(=O)n(CCCN(C)C)c(=O)c6ccc8c(=O)n(CCCN(C)C)c(=O)c7c8c65)cc(c24)C1=O)C(=O)N(CCCN(C)C)C3=O

- logK ([1]; cumulative 1:2 14.68, 1:3 20.37): 7.67 ± 0.05
- logK ([2]; 1:1 complex, cumulative 1:2 12.48, 1:3 17.70): 5.82 ± 0.02
- logK ([3]; cumulative 1:2 14.36, 2:1 11.69): 7.77 ± 0.12
- logK ([4]; cumulative constant of 1:2 (DNA:dyad) complex, 1:4 26.88, 2:1 11.55): 13.80 ± 0.05
SMILES: CN(C)CCCN1C(=O)c2ccc3c4c(c(NCc5cn(CCCNC(=O)c6ccc7[nH]c8c([nH]c7c6)c6c(=O)n(CCCN(C)C)c(=O)c7ccc9c(=O)n(CCCN(C)C)c(=O)c8c9c76)nn5)cc(c24)C1=O)C(=O)N(CCCN(C)C)C3=O
